Here are results for one compound from publication PMC6037691, “Selenazolyl-hydrazones as Novel Selective MAO Inhibitors With Antiproliferative and Antioxidant Activities: Experimental and In-silico Studies” (Frontiers in Chemistry, 2018).

What is called GI50 is the concentration at which growth is held to half of that of the control. Low readings indicate greater sensitivity of the cells, high ones lower sensitivity of the cells. The term IC50 denotes the concentration needed to halve the response being measured. A low value points to greater potency. As a reminder, the inhibition is how much of the control response was suppressed. Read a high inhibition as strong suppression. The EC50 is the concentration at which the effect is half-maximal. Low readings indicate an effect from little substance, high ones a need for much substance.

The test system of assay [1] is SW1573 (non-small cell lung). The experiment in a line: Antiproliferative activity, SW1573. It is filed as cell-based, human. The protocol: (§1) The in vitro antiproliferative activity of investigated compounds was evaluated against six human solid tumor cell lines: A549 (non-small cell lung), HBL-100, (breast), HeLa (cervix), SW1573 (non-small cell lung), as drug sensitive lines, T-47D (breast) and WiDr (colon) as drug resistant lines. These cell lines were a kind gift from Prof. G. J. Peters (VU Medical Center, Amsterdam, The Netherlands). For selectivity studies, the human fibroblasts BJ-hTert cell line was used, which was obtained from Dr. R. Freire (HUC, Tenerife, Canary Islands). Cells were kept in culture medium under standard conditions: RPMI 1640 medium, fetal bovine serum (5%), glutamine (2 mM), penicillin G (100 units/mL) and streptomycin (0.1 mg/mL). Antiproliferative tests were conducted as described earlier (Skehan et al., [1990]; Miranda et al., [2006]). Tested compounds were dissolved in DMSO at an initial concentration of 40 mM. DMSO was used as negative control (0.25% v/v). Antiproliferative activity of the compounds was expressed as GI50, which is the concentration of the compound that inhibits 50% of the culture growth.

Assay [2] deals with A549 (non-small cell lung). As to the kind of experiment: Antiproliferative activity, A549. It is filed as cell-based, human. To be noted: Homo sapiens. As to the method: as §1
Another assay deals with HBL-100 (breast). As to the kind of experiment: Antiproliferative activity, HBL-100. Type of assay: cell-based, human. The following applies: Homo sapiens. As to the method: as §1
Assay [3] can be described thus: DPPH scavenging antioxidant assay. The following applies: concentration providing 50% of radicals scavenging activity; mean ± SD, n = 3. As to the method:
The experiments were performed according to the literature protocol (Prior et al., [2005]). All tested compounds were initially dissolved in DMSO. The initial concentration of DPPH in methanol was 6.58 × 10^−5 M. A volume of 140 μL of DPPH solution was placed into a 96-well microplate, and then 10 μL solution of the tested compounds was added. Pure DMSO (10 μL) was used as the control. The absorbance at 517 nm was measured after 30 min period of incubation in the dark at 25°C. The Equation (1) was used for calculation of the scavenging activity:
(1) Scavenging activity (%)=Acontrol- Asample/Acontrol×100
where Asample and Acontrol refer to the absorbances at 517 nm of the sample and control, respectively. IC50 values were calculated from the graph of scavenging activity against the concentrations of the samples. IC50 represents the total antioxidant concentration of the sample which decreases the amount of the initial DPPH radical by 50%. Ascorbic acid (vitamin C) was used as positive control (concentration range 10–500 μM).
(In general: Loss of DPPH colour is used to gauge radical scavenging.)

Another assay concerns T-47D (breast). The experiment in a line: Antiproliferative activity, T-47D. It is filed as cell-based, human. To be noted: Homo sapiens, T47D, T-47D. The protocol:
as §1

The target in a further assay is T1, MAO A (Homo sapiens, UniProt P21397).
T1 construct: purchased Sigma-Aldrich
T1 sequence (P21397 1-527): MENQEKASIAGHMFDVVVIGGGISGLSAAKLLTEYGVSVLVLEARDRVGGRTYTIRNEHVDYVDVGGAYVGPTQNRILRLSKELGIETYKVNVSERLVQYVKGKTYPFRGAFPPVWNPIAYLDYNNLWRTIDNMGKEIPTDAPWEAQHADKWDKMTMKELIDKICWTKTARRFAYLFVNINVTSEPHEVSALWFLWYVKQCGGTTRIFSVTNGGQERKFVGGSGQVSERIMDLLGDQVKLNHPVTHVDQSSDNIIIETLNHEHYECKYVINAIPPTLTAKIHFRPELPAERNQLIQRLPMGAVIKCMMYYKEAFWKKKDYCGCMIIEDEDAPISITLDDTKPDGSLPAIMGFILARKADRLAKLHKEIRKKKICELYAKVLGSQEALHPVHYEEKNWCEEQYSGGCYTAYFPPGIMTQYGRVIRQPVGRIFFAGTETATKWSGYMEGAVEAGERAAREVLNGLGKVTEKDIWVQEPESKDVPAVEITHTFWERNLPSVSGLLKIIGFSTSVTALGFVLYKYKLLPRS
As to the kind of experiment: MAO A inhibition, discontinuous fluorimetric kynuramine assay. It is filed as biochemical. The following applies: 1 μM inhibitor; mean ± SD, n = 2; normalized to control. The protocol: MAO A and B inhibition capacities were investigated using a discontinuous fluorimetric assay (Meiring et al., [2013]) as described previously by using human recombinant membrane-bound MAO purchased from Sigma-Aldrich (Affini et al., [2018]). Briefly, remained enzyme activity with inhibitor, either 1 μM (one-point) or concentrations ranging from 0.0001 to 10 μM, was assessed in the presence of kynuramine [2 × KM, KM = 20 μM (MAO A), KM = 30 μM (MAO B)] in potassium phosphate buffer (pH 7.4). Reactions were started by addition of enzyme and stopped by manual addition of sodium hydroxide (2 N) after 20 min. Enzyme activity was determined by detection of 4-hydroxyquinoline (λEx = 320 nm, λEm = 405 nm). Data were analyzed using GraphPad PRISM 6. For one-point measurements data were calculated as percentage of control and expressed as mean ± standard deviation (%). […] Data were obtained from two (one-point measurements) or at least three (IC50 values) independent experiments, each performed in duplicates.

For another assay, the system named is WiDr (colon). As to the kind of experiment: Antiproliferative activity, WiDr. To be noted: Homo sapiens. It is filed as cell-based, human. As to the method: as §1
A short description of assay [4]: Total reducing power (TRP), modified potassium ferricyanide reduction method. The following applies: concentration providing 0.500 of absorbance at 700 nm; mean ± SD, n = 3. As to the method:
The mixture containing 0.5 mL of phosphate buffer (0.2 M, pH = 6.6), 0.5 mL of K3[Fe(CN)6] (1%; w/v) and 0.5 mL of the samples (100–1,500 μM) was incubated at 50°C for 20 min. A volume of 0.5 mL of trichloroacetic acid (TCA, 10%; w/v), 0.5 mL of Milli-Q water and 0.5 mL of FeCl3 (0.1%; w/v) was added, followed by intensive vortexing. The absorbance of the resulting mixture was measured after 60 min at 700 nm using phosphate buffer as blank (Oyaizu, [1986]).
Volume of 0.4 mL of sample solution (50–1,000 μM) was mixed with 1.6 mL of reagent solution [0.6 M H2SO4, 28 mM Na3PO4, and 4 mM (NH4)2MoO4] and resulting mixtures were incubated at 95°C for 90 min. The cooled reaction mixtures were then centrifuged for 10 min (3,000 rpm). The absorbance of the supernatant solution was measured, 1 h after centrifugation, at 695 nm against reagent solution as blank. An increased absorbance in reading in both assays indicated increased antioxidant power, expressed as EC50 values (the sample concentration giving absorbance of 0.500 from the graph of absorbance at 700 nm or 695 nm against compound concentration) (Prieto et al., [1999]).

The test system of another assay is HeLa (cervix). The experiment in a line: Antiproliferative activity, HeLa. To be noted: Homo sapiens. Type of assay: cell-based, human. The protocol:
as §1

Assay [5] concerns human fibroblasts BJ-hTert cell line. As to the kind of experiment: Selectivity, non-transformed fibroblasts BJ-hTert. It is filed as cell-based. To be noted: Fibroblast; BJ-hTert normal human cell line; concentrations up to 100 μM. The protocol:
as §1

Structures are written as SMILES. Where only a bound is given, the exact number is not on record here.

Consider `COc1ccc(-c2c[se]c(NN=Cc3cccc([N+](=O)[O-])c3)n2)cc1` [Compound 3-OMe, 4-(4-methoxyphenyl)-2-(2-(3-nitrobenzylidene)hydrazinyl)-1,3-selenazole], for which the “antiproliferative activity class SW1573” value in [1] is listed as “good activity (good activity (GI50 = 1–10 μM))”. Further, the GI50 in assay [1] (Homo sapiens) was 8.4 ± 0.2 µM; in [2], 52 ± 1 µM; in the assay on HBL-100 (breast), more than 100 µM; in the assay on T-47D (breast), 67 ± 2.2 µM; with WiDr (colon), more than 100 µM; in the assay on HeLa (cervix), 26 ± 2 µM. Moreover, the GI50 in [5] was more than 100 µM. The compound further yielded an IC50 in [3] of 298 ± 14.8 µM. On MAO A, this compound had an inhibition at 1 µM of 31.2 ± 1.6%. Also, the EC50 in [4] stood at 488 ± 46 µM.
